Test results from PubChem BioAssay (NCI).
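The concentration for 50% growth inhibition is given as GI50. TGI denotes the concentration required for complete inhibition of growth.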

Legend:
Experiment in all cases: NCI tumour cell line growth inhibition, 384-well format
A498 renal = test system: A498 renal
A549 NSCLC = test system: A549 NSCLC
CAKI-1 renal = test system: CAKI-1 renal
COLO 205 colon = test system: COLO 205 colon
DU-145 prostate = test system: DU-145 prostate
HT29 colon = test system: HT29 colon
MDA-MB-435 melanoma = test system: MDA-MB-435 melanoma
NCI-H522 lung = test system: NCI-H522 lung
OVCAR-4 ovarian = test system: OVCAR-4 ovarian
SF-295 CNS = test system: SF-295 CNS
SF-539 CNS = test system: SF-539 CNS
SNB-19 CNS = test system: SNB-19 CNS
UO-31 renal = test system: UO-31 renal

## Cn1cc(-c2ccc3c(c2)CCN3C(=O)Cc2cccc(C(F)(F)F)c2)c2c(N)ncnc21
A498 renal
  GI50: 0.967 µM
  TGI: 17.7 µM
A549 NSCLC
  GI50: 6.71 µM
  TGI: > 61.4 µM
CAKI-1 renal
  GI50: 2.14 µM
  TGI: 12.8 µM
COLO 205 colon
  GI50: 7.33 µM
  TGI: 21 µM
DU-145 prostate
  GI50: 4.16 µM
  TGI: 22.3 µM
HT29 colon
  GI50: 6.6 µM
  TGI: 19.6 µM
MDA-MB-435 melanoma
  GI50: 8.32 µM
  TGI: 29.8 µM
NCI-H522 lung
  GI50: 8.97 µM
  TGI: 21.5 µM
OVCAR-4 ovarian
  GI50: 11.2 µM
  TGI: 25.1 µM
SF-295 CNS
  GI50: 6.87 µM
  TGI: 20.5 µM
SF-539 CNS
  GI50: 6.09 µM
  TGI: 19.2 µM
SNB-19 CNS
  GI50: 15.3 µM
  TGI: 42.9 µM
UO-31 renal
  GI50: 6.72 µM
  TGI: 28.4 µM
